Reference: patent US7173004B2, “Macrocyclic isoquinoline peptide inhibitors of hepatitis C virus” (Bristol-Myers Squibb Company, priority 2003, dated 2007)

How the values were obtained:
[1] = target: T1, HCV NS3/4A protease complex, BMS strain (genotype 1a) (UniProt P27958, C1454S/C1711G, species not given/STRAIN_BMS); experiment: Recombinant HCV NS3/4A protease complex FRET peptide assay, BMS strain; assay type: biochemical; conditions: NS3/4A BMS Strain; activity range classes
T1 construct: b1001: DNA encoding the recombinant HCV NS3/4A protease complex (amino acids 1027 to 1711) ... a three-lysine solubilizing tail was added at the 3′-end of the NS4A coding region; fused on or other part: Three-lysine solubilising tail at the C-terminus of NS4A; A His tag is implied by the pET21b vector and Ni-NTA purification
Text: Recombinant HCV NS3/4A Protease Complex FRET Peptide Assay
The purpose of this in vitro assay was to measure the inhibition of HCV NS3 protease complexes, derived from the BMS strain, H77C strain or J416S strain, as described below, by compounds of the present invention. This assay provides an indication of how effective compounds of the present invention would be in inhibiting HCV proteolytic activity.
Serum from an HCV-infected patient was obtained from Dr. T. Wright, San Francisco Hospital. An engineered full-length cDNA (compliment deoxyribonucleic acid) template of the HCV genome (BMS strain) was constructed from DNA fragments obtained by reverse transcription-PCR (RT-PCR) of serum RNA (ribonucleic acid) and using primers selected on the basis of homology between other genotype 1a strains. From the determination of the entire genome sequence, a genotype 1a was assigned to the HCV isolate according to the classification of Simmonds et al. (See P Simmonds, K A Rose, S Graham, S W Chan, F McOmish, B C Dow, E A Follett, P L Yap and H Marsden, J. Clin. Microbiol., 31(6), 1493–1503 (1993)). […] The infectious clones, H77C (1a genotype) and J4L6S (1b genotype) were obtained from R. Purcell (NIH) and the sequences are published in Genbank (AAB67036, see Yanagi, M., Purcell, R. H., Emerson, S. U. and Bukh, J. Proc. Natl. Acad. Sci. U.S.A. 94(16), 8738–8743 (1997); AF054247, see Yanagi, M., St Claire, M., Shapiro, M., Emerson, S. U., Purcell, R. H. and Bukh, J, Virology 244 (1), 161–172. (1998)).
The H77C and J4L6S strains were used for production of recombinant NS3/4A protease complexes. DNA encoding the recombinant HCV NS3/4A protease complex (amino acids 1027 to 1711) for these strains were manipulated as described by P. Gallinari et al. (see Gallinari P, Paolini C, Brennan D, Nardi C, Steinkuhler C, De Francesco R. Biochemistry. 38(17):5620–32, (1999)). Briefly, a three-lysine solubilizing tail was added at the 3′-end of the NS4A coding region. The cysteine in the P1 position of the NS4A-NS4B cleavage site (amino acid 1711) was changed to a glycine to avoid the proteolytic cleavage of the lysine tag. Furthermore, a cysteine to serine mutation was introduced by PCR at amino acid position 1454 to prevent the autolytic cleavage in the NS3 helicase domain. The variant DNA fragment was cloned in the pET21b bacterial expression vector (Novagen) and the NS3/4A complex was expressed in Escherichia coli strain BL21 (DE3) (Invitrogen) following the protocol described by P. Gallinari et al. (see Gallinari P, Brennan D, Nardi C, Brunetti M, Tomei L, Steinkuhler C, De Francesco R., J. Virol. 72(8):6758–69 (1998)) with modifications. Briefly, NS3/4A expression was induced with 0.5 mM Isopropyl β-D-1-thiogalactopyranoside (IPTG) for 22 hr at 20° C. A typical fermentation (10 L) yielded approximately 80 g of wet cell paste. The cells were resuspended in lysis buffer (10 mL/g) consisting of 25 mM N-(2-Hydroxyethyl)piperazine-N′-(2-Ethane Sulfonic acid) (HEPES), pH7.5, 20% glycerol, 500 mM Sodium Chloride (NaCl), 0.5% Triton-X100, 1 microgram/milliliter (“μg/mL”) lysozyme, 5 mM Magnesium Chloride (MgCl2), 1 ug/ml DnaseI, 5 mM β-Mercaptoethanol (βME), Protease inhibitor—Ethylenediamine Tetraacetic acid (EDTA) free (Roche), homogenized and incubated for 20 mins at 4° C. The homogenate was sonicated and clarified by ultra-centrifugation at 235000 g for 1 hr at 4° C. Imidazole was added to the supernatant to a final concentration of 15 mM and the pH adjusted to 8.0. The crude protein extract was loaded on a Nickel-Nitrilotriacetic acid (Ni-NTA) column pre-equilibrated with buffer B (25 mM HEPES, pH8.0, 20% glycerol, 500 mM NaCl, 0.5% Triton-X100, 15 mM imidazole, 5 mM βME). The sample was loaded at a flow rate of 1 mL/min. The column was washed with 15 column volumes of buffer C (same as buffer B except with 0.2% Triton-X100). The protein was eluted with 5 column volumes of buffer D (same as buffer C except with 200 mM Imidazole). […]

[2] = tested on: HCV replicon; experiment: Three-drug combination studies in HCV replicon system, combination index; assay type: cell-based; conditions: mono-therapy in the three-drug combination experiment, HCV replicon, read-out: NS5A inhibitor EC50
Description: […] an NS5B replicase inhibitor (compound 2006; WO 03/010141), were tested in 2-drug combinations with the macrocyclic HCV NS3 protease inhibitor compound 28. In addition, compound 28 was also tested in 3-drug combinations with the NS5A and NS5B inhibitors.
For the experiments shown in Tables 8 and 9, inhibitors were tested at eleven concentrations each. 200× stock solutions of each inhibitor concentration were prepared by 2- or 3-fold dilution in DMSO prior to addition to cells/media. The drugs were tested as monotherapies and in combination with the NS3 protease inhibitor at various concentration ratios. Cells were exposed to compounds for 4 days and the amount of HCV inhibition was then determined using the FRET assay. The potential cytotoxicities of these combined agents were also analyzed in parallel by Alamar Blue staining. […] The degree of antagonism, additivity, or synergy was determined over a range of drug concentrations, and combination response curves were fit to assess the antiviral effects of the drug treatment combinations. The concentration ratios were analyzed using the method of Chou (Chou, Ting-Chao, and Rideout (Editors), (1991) Synergism and Antagonism in Chemotherapy, P. 61–101, Academic Press, New York). Tables 8 and 9 report the estimated EC50 values for the compounds tested, as well as the combination indices (CI). All estimates were computed using SAS Proc NLIN, and a two-parameter logistic. All combination indices were tested for departure from additivity using isobologram methods. Asymptotic confidence intervals were also calculated for each of the combination indices. These intervals are used to test for departure from additivity by comparing the bounds to one—a lower bound of the interval greater than 1 indicates antagonism, an upper bound of less than 1 indicates synergism, and a value of 1 contained in the interval indicates additivity.
Compound 28 was also tested in 3-drug combination experiments with the NS5A inhibitor and the NS5B inhibitor (Table 12). The starting concentrations for the mono-therapies consisted of a 0.667 μM solution of the NS5A inhibitor, a 0.3 μM solution of compound 28, and a 2.5 μM solution of the NS5B inhibitor. The starting concentration for the triple combination contained a mixture of ⅓ of each of the above concentrations. Dose response curves for all three mono-therapies and the triple combination therapy were obtained using 3-fold dilutions, and data analysis was carried out as described above for combination index experiments.

[3] = tested on: HCV replicon; experiment: Two-drug combination matrix studies in HCV replicon system, Universal Response Surface Approach (URSA); assay type: cell-based; conditions: Hepatitis C virus, matrix study with NS5A inhibitor, URSA estimate (Table 10)
Description: In addition to the combination index approach, above, the Universal Response Surface Approach (URSA) was also used to assess the antiviral effects of combinations of NS5A or NS5B inhibitors with the NS3 protease inhibitor. The experiments were conducted in a matrixed format with 8 concentrations of NS3 protease inhibitor crossed against 10 concentrations of NS5A or NS5B inhibitor on each of three plates. 200× stock solutions of each inhibitor concentration were prepared by 3-fold dilution in DMSO. Effects on replication were assessed in the HCV replicon system as described above. The data was analyzed using the URSA as described in Greco, Park and Rustum (Greco, Park, Sook, and Rustum (1990) Application of a New Approach for the Quantitation of Drug Synergism to the Combination of cis-Diamminedichloroplatinum and 1-β-D-Arabinofuranosylcytosine, Cancer Research, 50, 5318–5327). The interaction of the two drugs was assessed by using non-linear regression with a bisection algorithm. Seven parameters were estimated. These include the minimal response or response in the absence of drug, the maximal response or response in the presence of infinite drug, EC50's for the two drugs, slope parameters for the two drugs, and the drug interaction parameter α which provides the assessment of synergism, antagonism or additivity. Additivity is implied when α is equal to zero, synergy if the interaction parameter is larger than zero, and antagonism when the interaction parameter is less than zero. The confidence interval for the interaction parameter is also presented. This interval is used to test for departure from additivity by comparing the bounds to zero—a lower bound of the interval greater than zero indicates synergy, an upper bound of less than zero indicates antagonism, and a value of zero contained in the interval indicates additivity.

[4] = tested on: HCV; conditions: cited from earlier work
[5] = from C=CCCCSC[C@@H](NC(=O)OC(C)(C)C)C(=O)N1C[C@H](Oc2nccc3cc(OC)ccc23)C[C@H]1C(=O)N[C@]1(C(=O)OCC)C[C@H]1C=C; rcm bond; Grubbs II (tricyclohexylphosphine[1,3-bis(2,4,6-trimethylphenyl)-4,5-dihydroimidazol-2-ylidene][benzylidene]ruthenium(IV) dichloride); 1,2-dichloroethane; 3.48 mM; 83.0 °C; 16.0 h

`COc1ccc2c(O[C@@H]3C[C@H]4C(=O)N[C@]5(C(=O)O)C[C@H]5/C=C\COCC[C@H](NC(=O)OC(C)(C)C)C(=O)N4C3)nccc2c1` [Compound 140] showed an IC50 [1] of 5000 to 50000 nM.
In the case of `O=C(Nc1ccc(C2S/C(=N\c3ccc(N4CCOCC4)cc3)N(Cc3cccnc3)C2=O)cc1)[C@@H]1CCCN1C(=O)CCc1ccccc1` (stereo partly shown) [NS5A inhibitor, reference compound], the EC50 ([2]; Hepatitis C virus) is reported as 5 nM, the EC50 [2] is reported as 9 nM and the EC50 [3] is reported as 8 nM.
In the case of “alpha-interferon and ribavirin [reference compound]”, the sustained efficacy ([4]; HCV patients) is listed as 40 % of patients.
In the case of pegylated alpha-interferon, the “efficacy as monotherapy compared with unmodified alpha-interferon” value ([4]; clinical results, monotherapy) is listed as “superior to unmodified alpha-interferon”.
`CCOC(=O)[C@@]12C[C@H]1C=CCCCSC[C@@H](NC(=O)OC(C)(C)C)C(=O)N1C[C@H](Oc3nccc4cc(OC)ccc34)C[C@H]1C(=O)N2` showed a ring closure, yield of all isomers [5] of 73%.
